Measurements reported in patent US20080221097A1, “Imidazopyridine Derivatives as Cannabinoid Receptor Ligands” (priority 2005, published 2008).
Where a name gives a salt, the structure may show the parent alone.

The molecules below were run against T1, human cannabinoid CB2 receptor (Homo sapiens, UniProt P34972) (assay: Cannabinoid CB2 receptor agonist activity, yeast assay). Conditions: relative to HU210; averages of a number of experiments; read-out: efficacy (Emax) at the cloned human cannabinoid CB2 receptor.
T1 construct: expressed in transfected cells; host or cells: Saccharomyces cerevisiae strain MMY23 (cassette integrated at the ura3 locus, GPD promoter)
Format: cell-based
Protocol: The cannabinoid CB2 receptor agonist activity of compounds of formula (I) was determined in accordance with the following experimental method.
Yeast (Saccharomyces cerevisiae) cells expressing the human cannabinoid CB2 receptor were generated by integration of an expression cassette into the ura3 chromosomal locus of yeast strain MMY23. This cassette consisted of DNA sequence encoding the human CB2 receptor flanked by the yeast GPD promoter to the 5′ end of CB2 and a yeast transcriptional terminator sequence to the 3′ end of CB2. MMY23 expresses a yeast/mammalian chimeric G-protein alpha subunit in which the C-terminal 5 amino acids of Gpa1 are replaced with the C-terminal 5 amino acids of human Gαi½ (as described in Brown et al. (2000), Yeast 16:11-22). Cells were grown at 30° C. in liquid Synthetic Complete (SC) yeast media (Guthrie and Fink (1991), Methods in Enzymology, Vol. 194) lacking uracil, tryptophan, adenine and leucine to late logarithmic phase (approximately 6 OD600/ml).
Agonists were prepared as […] solutions in DMSO. EC50 values (the concentration required to produce 50% maximal response) were estimated using 4 fold dilutions (BiomekFX, Beckman) into DMSO. Agonist solutions in DMSO (1% final assay volume) were transferred into black microtitre plates from Greiner (384-well). Cells were suspended at a density of 0.2 OD600/ml in SC media lacking histidine, uracil, tryptophan, adenine and leucine and supplemented with 10 mM 3-aminotriazole, 0.1M sodium phosphate pH 7.0, and 10 μM fluorescein di-β-D-glucopyranoside (FDGlu). This mixture (50 μl per well) was added to agonist in the assay plates (Multidrop 384, Labsystems). After incubation at 30° C. for 24 hours, fluorescence resulting from degradation of FDGlu to fluorescein due to exoglucanase, an endogenous yeast enzyme produced during agonist-stimulated cell growth, was determined using a fluorescence microtitre plate reader (Tecan Spectrofluor or LJL Analyst excitation wavelength: 485 nm; emission wavelength: 535 nm). Fluorescence was plotted against compound concentration and iteratively curve fitted using a four parameter fit to generate a concentration effect value. Efficacy (Emax) was calculated from the equation
Emax=Max[compound X]−Min[compound X]/Max[HU210]−Min[HU210]×100%
where Max[compound X] and Min[compound X] are the fitted maximum and minimum respectively from the concentration effect curve for compound X, and Max[HU210] and Min[HU210] are the fitted maximum and minimum respectively from the concentration effect curve for (6aR,10aR)-3-(1,1′-Dimethylheptyl)-6a,7,10,10a-tetrahydro-1-hydroxy-6,6-dimethyl-6H-dibenzo [b,d]pyran-9-methanol (HU210; available from Tocris). Equieffective molar ratio (EMR) values were calculated from the equation
Where EC50[compound X] is the EC50 of compound X and EC50[HU210] is the EC50of HU210.

T1 sequence (P34972 whole entry): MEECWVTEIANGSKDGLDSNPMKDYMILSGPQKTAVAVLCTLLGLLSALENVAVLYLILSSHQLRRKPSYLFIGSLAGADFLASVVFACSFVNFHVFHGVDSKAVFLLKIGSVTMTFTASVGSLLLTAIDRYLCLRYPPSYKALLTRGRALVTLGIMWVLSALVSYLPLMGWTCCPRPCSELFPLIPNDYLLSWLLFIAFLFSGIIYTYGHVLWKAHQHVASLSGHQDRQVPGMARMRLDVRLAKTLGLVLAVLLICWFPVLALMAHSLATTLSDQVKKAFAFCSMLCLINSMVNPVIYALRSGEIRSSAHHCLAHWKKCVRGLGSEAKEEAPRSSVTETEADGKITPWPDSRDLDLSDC

Emax, > 50%:
Cn1cnc2c(Oc3cccc(Cl)c3)ncc(C(=O)N3CCCCC3)c21 [Example 13, 4-[(3-Chlorophenyl)oxy]-1-methyl-7-(1-piperidinylcarbonyl)-1H-imidazo[4,5-c]pyridine hydrochloride salt]
Cn1cnc2c(Nc3cccc(C(F)(F)F)c3F)ncc(C(=O)N3CCOCC3)c21 [Example 21, N-[2-Fluoro-3-(trifluoromethyl)phenyl]-1-methyl-7-(4-morpholinylcarbonyl)-1H-imidazo[4,5-c]pyridin-4-amine hydrochloride salt]
Cc1c(Nc2ncc(C(=O)N3CCOCC3)c3c2ncn3C)cccc1C(F)(F)F [Example 20, 1-Methyl-N-[2-methyl-3-(trifluoromethyl)phenyl]-7-(4-morpholinylcarbonyl)-1H-imidazo[4,5-c]pyridin-4-amine hydrochloride salt]
CC(C)CNC(=O)c1cnc(Nc2cccc(Br)c2)c2ncn(C)c12 [Example 4, 4-[(3-Bromophenyl)amino]-1-methyl-N-(2-methylpropyl)-1H-imidazo[4,5-c]pyridine-7-carboxamide hydrochloride salt]
Cn1cnc2c(Nc3ccc(Cl)cc3Cl)ncc(C(=O)N3CCCC3)c21 [Example 7, N-(2,4-Dichlorophenyl)-1-methyl-7-(1-pyrrolidinylcarbonyl)-1H-imidazo[4,5-c]pyridin-4-amine hydrochloride salt]
Cn1cnc2c(Oc3cccc(Cl)c3)ncc(C(=O)N3CCOCC3)c21 [Example 14, 4-1(3-Chlorophenyl)oxy]-1-methyl-7-(4-morpholinylcarbonyl)-1H-imidazo[4,5-c]pyridine hydrochloride salt]
Cn1cnc2c(Nc3cccc(Br)c3)ncc(C(=O)N3CCCCC3)c21 [Example 1, N-(3-Bromophenyl)-1-methyl-7-(1-piperidinylcarbonyl)-1H-imidazo[4,5-c]pyridin-4-amine hydrochloride salt]
Cn1cnc2c(Nc3cccc(OC(F)(F)F)c3)ncc(C(=O)N3CCOCC3)c21 [Example 17, 1-Methyl-7-(4-morpholinylcarbonyl)-N-{3-[(trifluoromethyl)oxy]phenyl}-1H-imidazo[4,5-c]pyridin-4-amine hydrochloride salt]
Cn1cnc2c(Nc3ccc(Cl)cc3Cl)ncc(C(=O)N3CCOCC3)c21 [Example 5, N-(2,4-Dichlorophenyl)-1-methyl-7-(4-morpholinylcarbonyl)-1H-imidazo[4,5-c]pyridin-4-amine hydrochloride salt]
Cn1cnc2c(Nc3cccc(Cl)c3)ncc(C(=O)N3CCCCC3)c21 [Example 10, N-(3-Chlorophenyl)-1-methyl-7-(1-piperidinylcarbonyl)-1H-imidazo[4,5-c]pyridin-4-amine hydrochloride salt]
CC(C)CNC(=O)c1cnc(Nc2cccc(Cl)c2)c2ncn(C)c12 [Example 12, 4-[(3-Chlorophenyl)amino]-1-methyl-N-(2-methylpropyl)-1H-imidazo[4,5-c]pyridine-7-carboxamide hydrochloride salt]
Cn1cnc2c(Nc3cccc(Br)c3)ncc(C(=O)N3CCCC3)c21 [Example 3, N-(3-Bromophenyl)-1-methyl-7-(1-pyrrolidinylcarbonyl)-1H-imidazo[4,5-c]pyridin-4-amine hydrochloride salt]
Cn1cnc2c(Nc3cccc(F)c3)ncc(C(=O)N3CCOCC3)c21 [Example 18, N-(3-Fluorophenyl)-1-methyl-7-(4-morpholinylcarbonyl)-1H-imidazo[4,5-c]pyridin-4-amine hydrochloride salt]
Cn1cnc2c(Nc3ccc(F)c(Cl)c3)ncc(C(=O)N3CCOCC3)c21 [Example 22, N-(3-Chloro-4-fluorophenyl)-1-methyl-7-(4-morpholinylcarbonyl)-1H-imidazo[4,5-c]pyridin-4-amine hydrochloride salt]
